From the supplement of paper PMC11208160 come the findings set out here.
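Note: IS621 bridge recombinase in Escherichia coli cells against a fixed T5 target plasmid.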

This data set in a line: recombinant UMI read abundance after kanamycin selection (control-corrected) (log10(CPM+1)); higher = more efficient recombination; extreme values may be limits of the assay; sequences stand for … in AGTGCAGAGAAAATCGGCCAGTTTTCTCTGCCTGCAGTCCGCATGCCGTGGGACCCCTTGGGTTCTAACCTGTTGCCTAGATTTATGCAGCGGACTGCCTTTCTCCCAAAGTGATAAACCGG…AGGTTGGTTTCACT; site = the 11-nt donor. Put shortly: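 Under IPTG (0.07 mM) plus kanamycin, or without selection, Escherichia coli carrying a UMI-tagged donor and donor-binding-loop pair library and a target plasmid for the IS621 bridge recombinase were plated in two replicates. Recombinant UMIs were PCR-amplified across the donor–target junction and sequenced. Counts were converted to CPM, averaged over replicates, scaled by control-derived factors and reported as log10(CPM+1).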
Turning to “TTCTCCGCATGGACCGGTTTTCCCGGTAATCCGTATTTGAA (site TTCTCCGCTTT)”, the “recombinant UMI read abundance (log10)” value worked out at 0.0825. The same measure for “TTCTCCTCATGGACCGGTTTTCCCGGTAATCCGTATTTGTT (site TTCTCCTCTAA)”: 0.151; for “TTCTCTTCATGGACCGGTTTTCCCGGTAATCCGTATTTGTG (site TTCTCTTCTCA)”: 0.00971. The same measure for “TTCTGGGCATGGACCGGTTTTCCCGGTAATCCGTATTTGCA (site TTCTGGGCTTG)”: 0.345; for “TTCTGTCCATGGACCGGTTTTCCCGGTAATCCGTATTTGCG (site TTCTGTCCTCG)”: 0.00535. For the sequence “TTCTTCCCATGGACCGGTTTTCCCGGTAATCCGTATTTGGC (site TTCTTCCCTGC)”, the “recombinant UMI read abundance (log10)” value came out at 0. The same measure for “TTCTTGACATGGACCGGTTTTCCCGGTAATCCGTATTTGCT (site TACTTGACTAG)”: 0.126; for “TTCTTGACATGGACCGGTTTTCCCGGTAATCCGTATTTGCT (site TCCTTGACTAG)”: 0.513; for “TTCTTGACATGGACCGGTTTTCCCGGTAATCCGTATTTGCT (site TGCTTGACTAG)”: 0. On to “TTCTTGACATGGACCGGTTTTCCCGGTAATCCGTATTTGCT (site TTCTTGACTAG)”, for which the “recombinant UMI read abundance (log10)” value is 0.68. The same measure for “TTGAACACATGGACCGGTTTTCCCGGTAATCCGTATTTGAC (site TTGAACACTGT)”: 0.849; for “TTGAATACATGGACCGGTTTTCCCGGTAATCCGTATTTGCA (site TAGAATACTTG)”: 1.77. “TTGAATACATGGACCGGTTTTCCCGGTAATCCGTATTTGCA (site TCGAATACTTG)”: the “recombinant UMI read abundance (log10)” value was found to be 0. The same measure for “TTGAATACATGGACCGGTTTTCCCGGTAATCCGTATTTGCA (site TGGAATACTTG)”: 0. As for “TTGAATACATGGACCGGTTTTCCCGGTAATCCGTATTTGCA (site TTGAATACTTG)”, the “recombinant UMI read abundance (log10)” value was 0.467. The same measure for “TTGACAACATGGACCGGTTTTCCCGGTAATCCGTATTTGAC (site TTGACAACTGT)”: 1.62; for “TTGACTCCATGGACCGGTTTTCCCGGTAATCCGTATTTGCT (site TTGACTCCTAG)”: 0.111; for “TTGAGCACATGGACCGGTTTTCCCGGTAATCCGTATTTGGA (site TTGAGCACTTC)”: 0.207. The same measure for “TTGCATGCATGGACCGGTTTTCCCGGTAATCCGTATTTGGT (site ATGCATGCTAC)”: 0.00895; for “TTGCATGCATGGACCGGTTTTCCCGGTAATCCGTATTTGGT (site CTGCATGCTAC)”: 0.00328. The same measure for “TTGCATGCATGGACCGGTTTTCCCGGTAATCCGTATTTGGT (site GTGCATGCTAC)”: 0.0185. Turning to “TTGCATGCATGGACCGGTTTTCCCGGTAATCCGTATTTGGT (site TTGCATGCTAC)”, the “recombinant UMI read abundance (log10)” value turned out to be 0.317. The same measure for “TTGCGGGCATGGACCGGTTTTCCCGGTAATCCGTATTTGTC (site TTGCGGGCTGA)”: 2.15. The same measure for “TTGCTACCATGGACCGGTTTTCCCGGTAATCCGTATTTGAA (site TTGCTACCTTT)”: 0.0119.

Turning to “TTGCTCACATGGACCGGTTTTCCCGGTAATCCGTATTTGTC (site TTGCTCACTGA)”, the “recombinant UMI read abundance (log10)” value came out at 2.25. Consider “TTGCTGACATGGACCGGTTTTCCCGGTAATCCGTATTTGCG (site TTGCTGACTCG)”, for which the “recombinant UMI read abundance (log10)” value is 1.33. The same measure for “TTGCTGACATGGACCGGTTTTCCCGGTAATCCGTATTTGTG (site TTGCTGACTCA)”: 0.12; for “TTGGAAACATGGACCGGTTTTCCCGGTAATCCGTATTTGCA (site ATGGAAACTTG)”: 0; for “TTGGAAACATGGACCGGTTTTCCCGGTAATCCGTATTTGCA (site CTGGAAACTTG)”: 1.21. With “TTGGAAACATGGACCGGTTTTCCCGGTAATCCGTATTTGCA (site GTGGAAACTTG)”, the “recombinant UMI read abundance (log10)” value worked out at 0.342.

In the case of “TTGGAAACATGGACCGGTTTTCCCGGTAATCCGTATTTGCA (site TTGGAAACTTG)”, the “recombinant UMI read abundance (log10)” value amounted to 1.86. The same measure for “TTGGAGCCATGGACCGGTTTTCCCGGTAATCCGTATTTGAC (site TTGGAGCCTGT)”: 1.31; for “TTGGCCACATGGACCGGTTTTCCCGGTAATCCGTATTTGGA (site TTGGCCACTTC)”: 0.146; for “TTGGCGTCATGGACCGGTTTTCCCGGTAATCCGTATTTGTC (site TTGGCGTCTGA)”: 1.13. The same measure for “TTGGTATCATGGACCGGTTTTCCCGGTAATCCGTATTTGAC (site TTGGTATCTGT)”: 2.59; for “TTGTACCCATGGACCGGTTTTCCCGGTAATCCGTATTTGGT (site TTGTACCCTAC)”: 0.111. On to “TTGTATACATGGACCGGTTTTCCCGGTAATCCGTATTTGGG (site TTGTATACTCC)”, for which the “recombinant UMI read abundance (log10)” value turned out to be 0.00305. The same measure for “TTGTGATCATGGACCGGTTTTCCCGGTAATCCGTATTTGTG (site TTGTGATCTCA)”: 1.25.

Turning to “TTGTGGACATGGACCGGTTTTCCCGGTAATCCGTATTTGTA (site TTGTGGACTTA)”, the “recombinant UMI read abundance (log10)” value is 1.6. The same measure for “TTTAAAGCATGGACCGGTTTTCCCGGTAATCCGTATTTGAC (site TTTAAAGCTGT)”: 0; for “TTTAACCCATGGACCGGTTTTCCCGGTAATCCGTATTTGAA (site TTTAACCCTTT)”: 0.00893. The same measure for “TTTAACTCATGGACCGGTTTTCCCGGTAATCCGTATTTGAA (site TTTAACTCTTT)”: 0.34. For the sequence “TTTAATACATGGACCGGTTTTCCCGGTAATCCGTATTTGAA (site TTTAATACTTT)”, the “recombinant UMI read abundance (log10)” value came to 0.00702. For “TTTACGTCATGGACCGGTTTTCCCGGTAATCCGTATTTGAT (site TTTACGTCTAT)”, the “recombinant UMI read abundance (log10)” value was 0.00816. “TTTAGACCATGGACCGGTTTTCCCGGTAATCCGTATTTGTC (site TTTAGACCTGA)”: the “recombinant UMI read abundance (log10)” value was found to be 0. The same measure for “TTTATCCCATGGACCGGTTTTCCCGGTAATCCGTATTTGAT (site TTTATCCCTAT)”: 0.263. The same measure for “TTTCAGGCATGGACCGGTTTTCCCGGTAATCCGTATTTGAG (site TTTCAGGCTCT)”: 0.155. The same measure for “TTTCTAGCATGGACCGGTTTTCCCGGTAATCCGTATTTGGT (site TTTCTAGCTAC)”: 0.0163; for “TTTCTCACATGGACCGGTTTTCCCGGTAATCCGTATTTGCC (site TTTCTCACTGG)”: 0.843; for “TTTCTGTCATGGACCGGTTTTCCCGGTAATCCGTATTTGTA (site TTTCTGTCTTA)”: 0. Regarding “TTTGAAGCATGGACCGGTTTTCCCGGTAATCCGTATTTGCG (site TTTGAAGCTCG)”, the “recombinant UMI read abundance (log10)” value stood at 1.11. The same measure for “TTTGCAGCATGGACCGGTTTTCCCGGTAATCCGTATTTGCT (site TTTGCAGCTAG)”: 0.00605; for “TTTGCAGCATGGACCGGTTTTCCCGGTAATCCGTATTTGCT (site TTTGCCGCTAG)”: 0.0123. The same measure for “TTTGCAGCATGGACCGGTTTTCCCGGTAATCCGTATTTGCT (site TTTGCGGCTAG)”: 0.00881. The same measure for “TTTGCAGCATGGACCGGTTTTCCCGGTAATCCGTATTTGCT (site TTTGCTGCTAG)”: 0.00602; for “TTTGCGCCATGGACCGGTTTTCCCGGTAATCCGTATTTGCT (site TTTGCGACTAG)”: 0.0112; for “TTTGCGCCATGGACCGGTTTTCCCGGTAATCCGTATTTGCT (site TTTGCGCCTAG)”: 0.00475. As to “TTTGCGCCATGGACCGGTTTTCCCGGTAATCCGTATTTGCT (site TTTGCGGCTAG)”, the “recombinant UMI read abundance (log10)” value came out at 0. Regarding “TTTGCGCCATGGACCGGTTTTCCCGGTAATCCGTATTTGCT (site TTTGCGTCTAG)”, the “recombinant UMI read abundance (log10)” value was 0.0103.

“TTTGCGGCATGGACCGGTTTTCCCGGTAATCCGTATTTGCA (site TTTGCGGCTAG)”: the “recombinant UMI read abundance (log10)” value was 0.0111. The same measure for “TTTGCGGCATGGACCGGTTTTCCCGGTAATCCGTATTTGCA (site TTTGCGGCTCG)”: 0. For the sequence “TTTGCGGCATGGACCGGTTTTCCCGGTAATCCGTATTTGCA (site TTTGCGGCTGG)”, the “recombinant UMI read abundance (log10)” value amounted to 0. The same measure for “TTTGCGGCATGGACCGGTTTTCCCGGTAATCCGTATTTGCA (site TTTGCGGCTTG)”: 0.222; for “TTTGCGTCATGGACCGGTTTTCCCGGTAATCCGTATTTGCT (site TTTGCGACTAG)”: 0; for “TTTGCGTCATGGACCGGTTTTCCCGGTAATCCGTATTTGCT (site TTTGCGCCTAG)”: 0.0115. The same measure for “TTTGCGTCATGGACCGGTTTTCCCGGTAATCCGTATTTGCT (site TTTGCGGCTAG)”: 0.018; for “TTTGCGTCATGGACCGGTTTTCCCGGTAATCCGTATTTGCT (site TTTGCGTCTAG)”: 0.251. The same measure for “TTTGCTGCATGGACCGGTTTTCCCGGTAATCCGTATTTGTG (site TTAGCTGCTCA)”: 0.0128.
